# In US20230390251A1, “METHODS OF TREATING RIBONUCLEOTIDE REDUCTASE-RELATED DISEASES WITH A RIBONUCLEOTIDE REDUCTASE INHIBITOR” (TAIHO PHARMACEUTICAL CO., LTD., priority 2020, published 2023):
# Columns and labels:
# [1] = tested on: Human acute myelocytic leukemia (AML) cell line MV-4-11 cells; experiment: Anti-tumor effect (relative tumor volume) in nude mice implanted with MV-4-11 cells; format: in vivo; conditions: for effect of reducing tumor volume (RTV) compared to the Control Group: Day 15
# Protocol: Anti-tumor Effect and body weight change in QOD Dosing Regimen Human acute myelocytic leukemia (AML) cell line MV-4-11 cells (American Type Culture Collection CRL-9591™) were implanted in the right thorax of male nude mice (CLEA Japan, Inc.). After implantation of the tumor, the major axis (mm) and minor axis (mm) of the tumor were measured, and tumor volume (TV) was calculated for each mouse. Then, the mice were assigned to the following groups, Control group (◯), Continuous Dosing Group (●: 100 mg/kg/day; ⋄: 150 mg/kg/day) and QOD Dosing Group (▴: 200 mg/kg/day; ♦: 300 mg/kg/day), so that the average TV of each group was equivalent. The day in which the grouping (n=5) was conducted was taken as Day 0.
# 5-chloro-2-(N-((1S,2R)-2-(6-fluoro-2,3-dimethylphenyl)-1-(5-oxo-4,5-dihydro-1,3,4-oxadiazol-2-yl)propyl)sulfamoyl)benzamide (Compound A) was suspended in 5 mg/mL hypromellose solution to provide appropriate test samples for 100 mg/kg, 150 mg/kg. 200 mg/kg, and 300 mg/kg dosing regimen. Animals of the Control group were not treated.
# To mice in the Continuous Dosing Group, 100 mg/kg/day or 150 mg/kg/day of Compound A was orally administered once daily from Day 1 to Day 14. The total dosage for mice in the Continuous Dosing Group administered 100 mg/kg/day (Group C-1) was 1400 mg/kg, and the total dosage for mice in the Continuous Dosing Group administered 150 mg/kg/day (Group C-2) was 2100 mg/kg.
# To mice in the QOD Dosing Group, 200 mg/kg/day or 300 mg/kg/day of Compound A was orally administered once every other day for two weeks (Days 1, 3, 5, 7, 9, 11 and 13). The total dosage for mice in the QOD Dosing Group administered 200 mg/kg/day (Group QOD-1) was 1400 mg/kg, and the total dosage for mice in the QOD Dosing Group administered 300 mg/kg/day (Group QOD-2) was 2100 mg/kg.
# On Days 4, 8, 11 and 15, using the following formula: TV (mm^3)=(major axis×minor axis^2)/2, relative tumor volume (RTV) was calculated as an index of anti-tumor effect during the dosing period for each group (FIG. 1).
# Similar to Example 1, anti-tumor effect and body weight change were studied in mice harboring MV-4-11 cells among the following five groups: Control group (◯), Continuous Dosing Group (●: 100 mg/kg/day; ⋄: 150 mg/kg/day) and QW Dosing Group (▪: 700 mg/kg/day; x: 1050 mg/kg/day).
# To mice in the QW Dosing Group, 700 mg/kg/day or 1050 mg/kg/day of Compound A was orally administered once per week for two weeks (Days 1 and 8). The total dosage for mice in the QW Dosing Group administered 700 mg/kg/day (Group QW-1) was 1400 mg/kg, and the total dosage for mice in the QW Dosing Group administered 1050 mg/kg/day (Group QW-2) was 2100 mg/kg.
# (§1) Similar to Example 1, anti-tumor effect and body weight change were studied in mice harboring MV-4-11 cells among the following five groups: Control group (◯), Continuous Dosing Group (●: 100 mg/kg/day; ⋄: 150 mg/kg/day) and 3QW Dosing Group 1 (▴: 233 mg/kg/day; ♦: 350 mg/kg/day).
# To mice in the 3QW Dosing Group 1, 233 mg/kg/day or 350 mg/kg/day of Compound A was orally administered three days consecutively per week for two weeks (Days 1-3 and 8-10). The total dosage for mice in the 3QW Dosing Group 1 administered 233 mg/kg/day (Group 3QW1-1) was 1400 mg/kg, and the total dosage for mice in the 3QW Dosing Group 1 administered 350 mg/kg/day (Group 3QW1-2) was 2100 mg/kg.
# as §1, with “Anti-tumor Effect and body weight change in 3QW Dosing Regimen 2 Similar” for “Similar”, “group (0),” for “group (◯),”, “Group 2” for “Group 1”
# To mice in the 3QW Dosing Group 2, 233 mg/kg/day or 350 mg/kg/day of Compound A was orally administered every other day three times per week for two weeks (Days 1, 3, 5, 8, 10 and 12). […]
# A673 cells = experiment: Cell proliferation assay in A673 cells treated with siRNA against SLFN11; format: cell-based; conditions: A673 Ewing sarcoma cells, siSLFN11 vs siControl, 3 days of exposure
# Protocol: (§2) A673 cells, NCI-H460 cells and CFPAC-1 cells were transfected with 1 nM siRNAs for 24 h using Lipofectaminet®RNAiMAX Reagent (Thermo Fisher Scientific Inc.) and then re-seeded onto a 96-well plate for cell proliferation assay and caspase induction assay and onto dishes for immunoblotting analysis. siRNAs were obtained from Thermo Fisher Scientific Inc. as follows: Silencer® Select Negative Control #1 siRNA (#4390843 used as siControl), SLFN11 Silencer® Select Pre-designed siRNA (#s40703 used as siSLFN11-1, #s40704 as siSLFN11-2, and #s40702 as siSLFN11-3).
# (§3) Cell proliferation assay was performed in accordance with conventional methods, available in Hasako, et al., ibid. Briefly, cells treated with siRNAs for 24 h were plated onto 96 well plate and incubated for 24 h, followed by 3 days of exposure to the compound A. After compound exposure, viable cells were detected by using the CellTiter-Glo luminescent cell viability assay (Promega).
# NCI-H460 cells [2] = experiment: Cell proliferation assay in NCI-H460 cells treated with siRNA against SLFN11; format: cell-based; conditions: non-small cell lung cancer cell line NCI-H460, siSLFN11 vs siControl, 3 days of exposure
# Protocol: as §2, §3
# NCI-H460 cells [3] = experiment: Caspase-Glo 3/7 caspase induction assay in NCI-H460 cells treated with siRNA against SLFN11; format: cell-based; conditions: 10 micro mol/L, 24 h; NCI-H460 cells transfected with siRNA against SLFN11
# Protocol: as §2
# (§4) Caspase induction assay was performed in accordance with conventional methods, available in Hasako., et al., ibid. Briefly, the cells with siRNAs for 24 h were seeded onto 96 well plate, incubated for 24 h, and then treated with Compound A for 24 h. Caspase induction was detected by using the Caspase-Glo 3/7 assay (Promega).
# CFPAC-1 cells = experiment: Caspase-Glo 3/7 caspase induction assay in CFPAC-1 cells treated with siRNA against SLFN11; format: cell-based; conditions: 10 micro mol/L, 24 h; CFPAC-1 cells transfected with siRNA against SLFN11
# Protocol: as §2, §4
smiles,measurement,setting,value
"Cc1ccc(F)c([C@@H](C)[C@H](NS(=O)(=O)c2ccc(Cl)cc2C(N)=O)c2n[nH]c(=O)o2)c1C [Compound A, 5-chloro-2-(N-((1S,2R)-2-(6-fluoro-2,3-dimethylphenyl)-1-(5-oxo-4,5-dihydro-1,3,4-oxadiazol-2-yl)propyl)sulfamoyl)benzamide]","effect of reducing tumor volume, Group 3QW1-2 compared with Group C-2","[1]; 3QW (consecutive) 350 mg/kg/day vs continuous 150 mg/kg/day, total dosage 2100 mg/kg, not statistically significant",similar
same,"effect of reducing tumor volume, Group 3QW2-1 compared with Group C-1","[1]; 3QW (every other day) 233 mg/kg/day vs continuous 100 mg/kg/day, total dosage 1400 mg/kg, t-test P<0.05",higher than Group C-1
same,"effect of reducing tumor volume, Group 3QW2-2 compared with Group C-2","[1]; 3QW (every other day) 350 mg/kg/day vs continuous 150 mg/kg/day, total dosage 2100 mg/kg, not statistically significant",similar
same,effect of reducing tumor volume (RTV) compared to the Control Group,"[1]; 3QW Dosing Group 1, 233 or 350 mg/kg/day orally Days 1-3 and 8-10",showed the effect of reducing tumor volume compared to the Control Group
same,effect of reducing tumor volume (RTV) compared to the Control Group,"[1]; 3QW Dosing Group 2, 233 or 350 mg/kg/day orally Days 1, 3, 5, 8, 10 and 12",showed the effect of reducing tumor volume compared to the Control Group
same,"effect of reducing tumor volume, Group 5QW2-2 compared with Group C-2","[1]; 5QW (2 on/1 off/3 on/1 off) 210 mg/kg/day vs continuous 150 mg/kg/day, total dosage 2100 mg/kg, t-test p<0.05",higher than Group C-2 with a statistically significant difference
same,"effect of reducing tumor volume, Group 5QW1-2 compared with Group C-2","[1]; 5QW (consecutive) 210 mg/kg/day vs continuous 150 mg/kg/day, total dosage 2100 mg/kg, not statistically significant",similar
same,effect of reducing tumor volume (RTV) compared to the Control Group,"[1]; 5QW Dosing Group 1, 140 or 210 mg/kg/day orally Days 1-5 and 8-12",showed the effect of reducing tumor volume compared to the Control Group
same,effect of reducing tumor volume (RTV) compared to the Control Group,"[1]; 5QW Dosing Group 2, 140 or 210 mg/kg/day orally Days 1-2, 4-6, 8-9 and 11-13",showed the effect of reducing tumor volume compared to the Control Group
same,effect of reducing tumor volume (RTV) compared to the Control Group,"[1]; Continuous Dosing Group, 100 or 150 mg/kg/day orally once daily Day 1 to Day 14",showed the effect of reducing tumor volume compared to the Control Group
same,"effect of reducing tumor volume, Group QOD-1 compared with Group C-1","[1]; QOD 200 mg/kg/day vs continuous 100 mg/kg/day, total dosage 1400 mg/kg, t-test p<0.05",higher than Group C-1
same,"effect of reducing tumor volume, Group QOD-2 compared with Group C-2","[1]; QOD 300 mg/kg/day vs continuous 150 mg/kg/day, total dosage 2100 mg/kg, not statistically significant",similar
same,effect of reducing tumor volume (RTV) compared to the Control Group,"[1]; QOD Dosing Group, 200 or 300 mg/kg/day orally Days 1, 3, 5, 7, 9, 11 and 13",showed the effect of reducing tumor volume compared to the Control Group
same,"effect of reducing tumor volume, Group QW-2 compared with Group C-2","[1]; QW 1050 mg/kg/day vs continuous 150 mg/kg/day, total dosage 2100 mg/kg, not statistically significant",similar
same,effect of reducing tumor volume (RTV) compared to the Control Group,"[1]; QW Dosing Group, 700 or 1050 mg/kg/day orally Days 1 and 8",showed the effect of reducing tumor volume compared to the Control Group
same,effect of SLFN11 knockdown with siRNA on the cytotoxic effect,A673 cells,SLFN11 knockdown significantly suppressed the cytotoxic effect
same,effect of SLFN11 knockdown with siRNA on the cytotoxic effect,NCI-H460 cells [2],SLFN11 knockdown significantly suppressed the cytotoxic effect
same,compound-induced caspase-3/7 activation after SLFN11 knockdown,NCI-H460 cells [3],suppression
same,compound-induced caspase-3/7 activation after SLFN11 knockdown,CFPAC-1 cells,suppression
